# Test results as given in patent publication US9765074B2, “Inhibitors of the renal outer medullary potassium channel” (Merck Sharp & Dohme Corp., priority 2013, dated 2017).
# Molecular target: T1, hROMK (hKir1.1) (Homo sapiens, UniProt P48048)
# T1 construct: expressed in transfected cells
# T1 sequence (P48048 1-391): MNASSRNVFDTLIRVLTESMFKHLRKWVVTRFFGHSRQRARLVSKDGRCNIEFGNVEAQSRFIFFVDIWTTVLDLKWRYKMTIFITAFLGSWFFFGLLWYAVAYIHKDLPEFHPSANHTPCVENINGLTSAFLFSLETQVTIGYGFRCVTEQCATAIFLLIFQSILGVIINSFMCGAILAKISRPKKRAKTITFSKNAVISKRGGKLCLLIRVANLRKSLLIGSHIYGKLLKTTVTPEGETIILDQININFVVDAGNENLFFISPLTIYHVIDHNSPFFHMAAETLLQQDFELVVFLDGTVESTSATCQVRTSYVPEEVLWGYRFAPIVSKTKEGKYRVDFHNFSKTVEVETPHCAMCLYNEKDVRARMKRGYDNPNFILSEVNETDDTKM
# Test: Thallium Flux Assay (ROMK channel functional thallium flux, FLIPR-Tetra)
# Assay type: cell-based
# Details: HEK293 cells stably expressing hROMK (hKir1.1); 30 min compound incubation
# Outline: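 Thallium flux read by FluxOR fluorescence ([…]) for ~10 min after adding 3 mM Tl+/0.3 mM K+ final. Stable HEK-hKir1.1 cells were dye-loaded 90 min, exposed to compound 30 min at room temperature in ouabain/probenecid buffer; IC50 relative to a 3 μM control inhibitor.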
row,SMILES,IC50
1,"CC1=C(N2CCC3(CCN(C[C@@H](O)c4ccc(-n5cnnn5)nn4)CC3)C2=O)COC1=O [Example 33, 8-{(2R)-2-hydroxy-2-[6-(1H-tetrazol-1-yl)pyridazin-3-yl]ethyl}-2-(4-methyl-5-oxo-2,5-dihydrofuran-3-yl)-1-oxo-2-aza-8-azoniaspiro[4.5]decane]",20 nM
2,"CC1=C(N2CCC3(CCN(C[C@H](O)c4ccc(-n5cnnn5)cc4)CC3)C2=O)COC1=O [Example 34, 8-{(2R)-2-hydroxy-2-[4-(1H-tetrazol-1-yl)phenyl]ethyl}-2-(4-methyl-5-oxo-2,5-dihydrofuran-3-yl)-1-oxo-2-aza-8-azoniaspiro[4.5]decane]",10 nM
3,"CC1=C(N2CCC3(CCN(C[C@@H](O)c4ccc(-n5cnnn5)cc4)CC3)C2=O)COC1=O [Example 35, 8-{(2S)-2-hydroxy-2-[4-(1H-tetrazol-1-yl)phenyl]ethyl}-2-(4-methyl-5-oxo-2,5-dihydrofuran-3-yl)-1-oxo-2-aza-8-azoniaspiro[4.5]decane]",10 nM
4,"CC1=C(N2CCC3(CCN(C[C@H](O)c4ccc(-n5cnnn5)cc4F)CC3)C2=O)COC1=O [Example 36, 8-{(2R)-2-[2-fluoro-4-(1H-tetrazol-1-yl)phenyl]-2-hydroxyethyl}-2-(4-methyl-5-oxo-2,5-dihydrofuran-3-yl)-1-oxo-2-aza-8-azoniaspiro[4.5]decane]",10 nM
5,"CC1=C(N2CCC3(CCN(C[C@@H](O)c4ccc(-n5cnnn5)cc4F)CC3)C2=O)COC1=O [Example 37, 8-{(2S)-2-[2-fluoro-4-(1H-tetrazol-1-yl)phenyl]-2-hydroxyethyl}-2-(4-methyl-5-oxo-2,5-dihydrofuran-3-yl)-1-oxo-2-aza-8-azoniaspiro[4.5]decane]",10 nM
6,"CC1=C(N2CCC3(CCN(C[C@H](O)c4ccc(-n5cnnn5)cc4C)CC3)C2=O)COC1=O [Example 38, 8-{(2R)-2-hydroxy-2-[2-methyl-4-(1H-tetrazol-1-yl)phenyl]ethyl}-2-(4-methyl-5-oxo-2,5-dihydrofuran-3-yl)-1-oxo-2-aza-8-azoniaspiro[4.5]decane]",10 nM
7,"CC1=C(N2CCC3(CCN(C[C@@H](O)c4ccc(-n5cnnn5)cc4C)CC3)C2=O)COC1=O [Example 39, 8-{(2S)-2-hydroxy-2-[2-methyl-4-(1H-tetrazol-1-yl)phenyl]ethyl}-2-(4-methyl-5-oxo-2,5-dihydrofuran-3-yl)-1-oxo-2-aza-8-azoniaspiro[4.5]decane]",10 nM
8,"CC1=C(N2CCC3(CCN(C[C@H](O)c4ncc(-n5cnnn5)cn4)CC3)C2=O)COC1=O [Example 40, 8-{(2S)-2-hydroxy-2-[5-(1H-tetrazol-1-yl)pyrimidin-2-yl]ethyl}-2-(4-methyl-5-oxo-2,5-dihydrofuran-3-yl)-1-oxo-2-aza-8-azoniaspiro[4.5]decane]",200 nM
9,"CC1=C(N2CCC3(CCN(C[C@@H](O)c4ncc(-n5cnnn5)cn4)CC3)C2=O)COC1=O [Example 41, 8-{(2R)-2-hydroxy-2-[5-(1H-tetrazol-1-yl)pyrimidin-2-yl]ethyl}-2-(4-methyl-5-oxo-2,5-dihydrofuran-3-yl)-1-oxo-2-aza-8-azoniaspiro[4.5]decane]",160 nM
10,"Cc1nc(-n2cnnn2)ccc1[C@H](O)CN1C2CCC1CC1(CCN(C3=CC(=O)OC3)C1=O)C2 (stereo partly drawn) [Example 42, (1R,5R)-8-{(2S)-2-hydroxy-2-[2-methyl-6-(1H-tetrazol-1-yl)pyridin-3-yl]ethyl}-2′-oxo-1′-(5-oxo-2,5-dihydrofuran-3-yl)spiro[8-azoniabicyclo[3.2.1]octane-3,3′-pyrrolidine]]",20 nM
11,"Cc1nc(-n2cnnn2)ccc1[C@@H](O)CN1C2CCC1CC1(CCN(C3=CC(=O)OC3)C1=O)C2 (stereo partly drawn) [Example 43, (1R,5R)-8-{(2R)-2-hydroxy-2-[2-methyl-6-(1H-tetrazol-1-yl)pyridin-3-yl]ethyl}-2′-oxo-1′-(5-oxo-2,5-dihydrofuran-3-yl)spiro[8-azoniabicyclo[3.2.1]octane-3,3′-pyrrolidine]]",10 nM
12,"O=C1C=C(N2CCC3(CC4CCC(C3)N4C[C@H](O)c3ccc(-n4cnnn4)nn3)C2=O)CO1 (stereo partly drawn) [Example 44, (1R,5R)-8-{(2S)-2-hydroxy-2-[6-(1H-tetrazol-1-yl)pyridazin-3-yl]ethyl}-2′-oxo-1′-(5-oxo-2,5-dihydrofuran-3-yl)spiro[8-azoniabicyclo[3.2.1]octane-3,3′-pyrrolidine]]",10 nM
13,"CC1=C(N2CCC3(CC4CCC(C3)N4C[C@H](O)c3cnc(-n4cnnn4)nc3)C2=O)COC1=O (stereo partly drawn) [Example 45, (1R,5R)-8-{(2R)-2-hydroxy-2-[2-(1H-tetrazol-1-yl)pyrimidin-5-yl]ethyl}-1′-(4-methyl-5-oxo-2,5-dihydrofuran-3-yl)-2′-oxospiro[8-azoniabicyclo[3.2.1]octane-3,3′-pyrrolidine]]",30 nM
14,"CC1=C(N2CCC3(CC4CCC(C3)N4C[C@@H](O)c3ccc(-n4cnnn4)cn3)C2=O)COC1=O (stereo partly drawn) [Example 46, (1R,5R)-8-{(2R)-2-hydroxy-2-[5-(1H-tetrazol-1-yl)pyridin-2-yl]ethyl}-1′-(4-methyl-5-oxo-2,5-dihydrofuran-3-yl)-2′-oxospiro[8-azoniabicyclo[3.2.1]octane-3,3′-pyrrolidine]]",20 nM
15,"CC1=C(N2CCC3(CC4CCC(C3)N4C[C@H](O)c3ccc(-n4cnnn4)cn3)C2=O)COC1=O (stereo partly drawn) [Example 47, (1R,5R)-8-{(2S)-2-hydroxy-2-[5-(1H-tetrazol-1-yl)pyridin-2-yl]ethyl}-1′-(4-methyl-5-oxo-2,5-dihydrofuran-3-yl)-2′-oxospiro[8-azoniabicyclo[3.2.1]octane-3,3′-pyrrolidine]]",20 nM
16,"CC1=C(N2CCC3(CC4CCC(C3)N4C[C@H](O)c3cnc(-n4cnnn4)cn3)C2=O)COC1=O (stereo partly drawn) [Example 48, (1R,5R)-8-{(2S)-2-hydroxy-2-[5-(1H-tetrazol-1-yl)pyrazin-2-yl]ethyl}-1′-(4-methyl-5-oxo-2,5-dihydrofuran-3-yl)-2′-oxospiro[8-azoniabicyclo[3.2.1]octane-3,3′-pyrrolidine]]",30 nM
17,"CC1=C(N2CCC3(CC4CCC(C3)N4C[C@@H](O)c3cnc(-n4cnnn4)cn3)C2=O)COC1=O (stereo partly drawn) [Example 49, (1R,5R)-8-{(2R)-2-hydroxy-2-[5-(1H-tetrazol-1-yl)pyrazin-2-yl]ethyl}-1′-(4-methyl-5-oxo-2,5-dihydrofuran-3-yl)-2′-oxospiro[8-azoniabicyclo[3.2.1]octane-3,3′-pyrrolidine]]",90 nM
18,"CC1=C(N2CCC3(CC4CCC(C3)N4C[C@H](O)c3nnc(-n4cnnn4)c(C)c3C)C2=O)COC1=O (stereo partly drawn) [Example 50, (1R,5R)-8-{(2S)-2-[4,5-dimethyl-6-(1H-tetrazol-1-yl)pyridazin-3-yl]-2-hydroxyethyl}-1′-(4-methyl-5-oxo-2,5-dihydrofuran-3-yl)-2′-oxospiro[8-azoniabicyclo[3.2.1]octane-3,3′-pyrrolidine]]",20 nM
19,"CC1=C(N2CCC3(CC4CCC(C3)N4C[C@@H](O)c3nnc(-n4cnnn4)c(C)c3C)C2=O)COC1=O (stereo partly drawn) [Example 51, (1R,5R)-8-{(2R)-2-[4,5-dimethyl-6-(1H-tetrazol-1-yl)pyridazin-3-yl]-2-hydroxyethyl}-1′-(4-methyl-5-oxo-2,5-dihydrofuran-3-yl)-2′-oxospiro[8-azoniabicyclo[3.2.1]octane-3,3′-pyrrolidine]]",30 nM
20,"CC1=C(N2CCC3(CC4CCC(C3)N4C[C@H](O)c3ccc(-n4cnnn4)nn3)C2=O)COC1=O (stereo partly drawn) [Example 52, (1R,5R)-8-{(2S)-2-hydroxy-2-[6-(1H-tetrazol-1-yl)pyridazin-3-yl]ethyl}-1′-(4-methyl-5-oxo-2,5-dihydrofuran-3-yl)-2′-oxospiro[8-azoniabicyclo[3.2.1]octane-3,3′-pyrrolidine]]",10 nM
21,"CC1=C(N2CCC3(CC4CCC(C3)N4C[C@@H](O)c3ccc(-n4cnnn4)nn3)C2=O)COC1=O (stereo partly drawn) [Example 53, (1R,5R)-8-{(2R)-2-hydroxy-2-[6-(1H-tetrazol-1-yl)pyridazin-3-yl]ethyl}-1′-(4-methyl-5-oxo-2,5-dihydrofuran-3-yl)-2′-oxospiro[8-azoniabicyclo[3.2.1]octane-3,3′-pyrrolidine]]",10 nM
22,"CC1=C(N2CCC3(CC4CCC(C3)N4C[C@@H](O)c3cc(C)c(-n4cnnn4)nn3)C2=O)COC1=O (stereo partly drawn) [Example 54, (1R,5R)-8-{(2R)-2-hydroxy-2-[5-methyl-6-(1H-tetrazol-1-yl)pyridazin-3-yl]ethyl}-1′-(4-methyl-5-oxo-2,5-dihydrofuran-3-yl)-2′-oxospiro[8-azoniabicyclo[3.2.1]octane-3,3′-pyrrolidine]]",20 nM
23,"CC1=C(N2CCC3(CC4CCC(C3)N4C[C@H](O)c3cc(C)c(-n4cnnn4)nn3)C2=O)COC1=O (stereo partly drawn) [Example 55, (1R,5R)-8-{(2S)-2-hydroxy-2-[5-methyl-6-(1H-tetrazol-1-yl)pyridazin-3-yl]ethyl}-1′-(4-methyl-5-oxo-2,5-dihydrofuran-3-yl)-2′-oxospiro[8-azoniabicyclo[3.2.1]octane-3,3′-pyrrolidine]]",50 nM
24,"Cc1nc(-n2cnnn2)ccc1[C@@H](O)CN1CCC2(CC1)CCN(C1=C(C3CC3)C(=O)OC1)C2=O [Example 60, 2-(4-cyclopropyl-5-oxo-2,5-dihydrofuran-3-yl)-8-{(2R)-2-hydroxy-2-[2-methyl-6-(1H-tetrazol-1-yl)pyridin-3-yl]ethyl}-1-oxo-2-aza-8-azoniaspiro[4.5]decane]",40 nM
